Measured values from PubChem BioAssay AID1745844 (Carcinogenic Potency Database (CPDB), 2022).
Values joined by “and” are separate entries in the source; they are usually repeats but may differ in a detail not shown here. Identical values can stand only once.

Test system: rodent lifetime carcinogenesis bioassay, tumor incidence TD50
Assay: carcinogenic potency in animals, long-term in vivo studies, CPDB compilation (AID 1745844)

FC(F)=C(F)F
TD50 (mouse, strain B6C3F1, females, inhaled, site: Harderian gland, lesion: adenoma, dosed 95 weeks, study length 95 weeks): 1470 mg/kg/day
TD50 (mouse, strain B6C3F1, females, inhaled, site: all sites + liver, lesion: histiocytic sarcoma + hemangioma + hemangiosarcoma + hepatocellular adenoma + hepatocellular carcinoma, dosed 95 weeks, study length 95 weeks): 54 mg/kg/day
TD50 (mouse, strain B6C3F1, females, inhaled, site: all sites, lesion: hemangioma + hemangiosarcoma, dosed 95 weeks, study length 95 weeks): 61.3 mg/kg/day
TD50 (mouse, strain B6C3F1, females, inhaled, site: all sites, lesion: hemangioma, dosed 95 weeks, study length 95 weeks): 835 mg/kg/day
TD50 (mouse, strain B6C3F1, females, inhaled, site: all sites, lesion: hemangiosarcoma, dosed 95 weeks, study length 95 weeks): 66.5 mg/kg/day
TD50 (mouse, strain B6C3F1, females, inhaled, site: all sites, lesion: histiocytic sarcoma, dosed 95 weeks, study length 95 weeks): 176 mg/kg/day
TD50 (mouse, strain B6C3F1, females, inhaled, site: any site (literature study), lesion: several types, types named in the paper, dosed 95 weeks, study length 95 weeks): 48.4 mg/kg/day
TD50 (mouse, strain B6C3F1, females, inhaled, site: liver, lesion: hemangioma + hemangiosarcoma, dosed 95 weeks, study length 95 weeks): 61.3 mg/kg/day
TD50 (mouse, strain B6C3F1, females, inhaled, site: liver, lesion: hemangioma, dosed 95 weeks, study length 95 weeks): 530 mg/kg/day
TD50 (mouse, strain B6C3F1, females, inhaled, site: liver, lesion: hemangiosarcoma, dosed 95 weeks, study length 95 weeks): 66.5 mg/kg/day
TD50 (mouse, strain B6C3F1, females, inhaled, site: liver, lesion: hepatocellular adenoma + hepatoblastoma + hepatocellular carcinoma, dosed 95 weeks, study length 95 weeks): 63.3 mg/kg/day
TD50 (mouse, strain B6C3F1, females, inhaled, site: liver, lesion: hepatocellular adenoma + hepatocellular carcinoma, dosed 95 weeks, study length 95 weeks): 63.3 mg/kg/day
TD50 (mouse, strain B6C3F1, females, inhaled, site: liver, lesion: hepatocellular adenoma, dosed 95 weeks, study length 95 weeks): 217 mg/kg/day
TD50 (mouse, strain B6C3F1, females, inhaled, site: liver, lesion: hepatocellular carcinoma, dosed 95 weeks, study length 95 weeks): 80.8 mg/kg/day
TD50 (mouse, strain B6C3F1, females, inhaled, site: lung, lesion: alveolar/bronchiolar adenoma + alveolar/bronchiolar carcinoma + carcinoma, dosed 95 weeks, study length 95 weeks): 1640 mg/kg/day
TD50 (mouse, strain B6C3F1, females, inhaled, site: lung, lesion: alveolar/bronchiolar adenoma + alveolar/bronchiolar carcinoma, dosed 95 weeks, study length 95 weeks): 1010 mg/kg/day
TD50 (mouse, strain B6C3F1, females, inhaled, site: pituitary gland, lesion: pars distalis adenoma, dosed 95 weeks, study length 95 weeks): 1450 mg/kg/day
TD50 (mouse, strain B6C3F1, males, inhaled, site: Harderian gland, lesion: adenoma + carcinoma, dosed 95 weeks, study length 95 weeks): 1270 mg/kg/day
TD50 (mouse, strain B6C3F1, males, inhaled, site: Harderian gland, lesion: adenoma, dosed 95 weeks, study length 95 weeks): 1390 mg/kg/day
TD50 (mouse, strain B6C3F1, males, inhaled, site: all sites + liver, lesion: histiocytic sarcoma + hemangioma + hemangiosarcoma + hepatocellular adenoma + hepatocellular carcinoma, dosed 95 weeks, study length 95 weeks): 71.6 mg/kg/day
TD50 (mouse, strain B6C3F1, males, inhaled, site: all sites, lesion: hemangioma + hemangiosarcoma, dosed 95 weeks, study length 95 weeks): 88.3 mg/kg/day
TD50 (mouse, strain B6C3F1, males, inhaled, site: all sites, lesion: hemangioma, dosed 95 weeks, study length 95 weeks): 297 mg/kg/day
TD50 (mouse, strain B6C3F1, males, inhaled, site: all sites, lesion: hemangiosarcoma, dosed 95 weeks, study length 95 weeks): 109 mg/kg/day
TD50 (mouse, strain B6C3F1, males, inhaled, site: all sites, lesion: histiocytic sarcoma, dosed 95 weeks, study length 95 weeks): 429 mg/kg/day
TD50 (mouse, strain B6C3F1, males, inhaled, site: any site (literature study), lesion: several types, types named in the paper, dosed 95 weeks, study length 95 weeks): 69.9 mg/kg/day
TD50 (mouse, strain B6C3F1, males, inhaled, site: liver, lesion: hemangioma + hemangiosarcoma, dosed 95 weeks, study length 95 weeks): 87 mg/kg/day
TD50 (mouse, strain B6C3F1, males, inhaled, site: liver, lesion: hemangioma, dosed 95 weeks, study length 95 weeks): 308 mg/kg/day
TD50 (mouse, strain B6C3F1, males, inhaled, site: liver, lesion: hemangiosarcoma, dosed 95 weeks, study length 95 weeks): 108 mg/kg/day
TD50 (mouse, strain B6C3F1, males, inhaled, site: liver, lesion: hepatocellular adenoma + hepatoblastoma + hepatocellular carcinoma, dosed 95 weeks, study length 95 weeks): 91 mg/kg/day
TD50 (mouse, strain B6C3F1, males, inhaled, site: liver, lesion: hepatocellular adenoma + hepatocellular carcinoma, dosed 95 weeks, study length 95 weeks): 91 mg/kg/day
TD50 (mouse, strain B6C3F1, males, inhaled, site: liver, lesion: hepatocellular adenoma, dosed 95 weeks, study length 95 weeks): 222 mg/kg/day
TD50 (mouse, strain B6C3F1, males, inhaled, site: liver, lesion: hepatocellular carcinoma, dosed 95 weeks, study length 95 weeks): 190 mg/kg/day
TD50 (mouse, strain B6C3F1, males, inhaled, site: lung, lesion: alveolar/bronchiolar adenoma + alveolar/bronchiolar carcinoma + carcinoma, dosed 95 weeks, study length 95 weeks): 216 mg/kg/day
TD50 (mouse, strain B6C3F1, males, inhaled, site: lung, lesion: alveolar/bronchiolar adenoma + alveolar/bronchiolar carcinoma, dosed 95 weeks, study length 95 weeks): 220 mg/kg/day
TD50 (mouse, strain B6C3F1, males, inhaled, site: lung, lesion: alveolar/bronchiolar adenoma, dosed 95 weeks, study length 95 weeks): 348 mg/kg/day
TD50 (mouse, strain B6C3F1, males, inhaled, site: lung, lesion: alveolar/bronchiolar carcinoma + carcinoma, dosed 95 weeks, study length 95 weeks): 830 mg/kg/day
TD50 (mouse, strain B6C3F1, males, inhaled, site: thyroid gland, lesion: follicular-cell adenoma + follicular-cell carcinoma, dosed 95 weeks, study length 95 weeks): 988 mg/kg/day
TD50 (mouse, strain B6C3F1, males, inhaled, site: thyroid gland, lesion: follicular-cell adenoma, dosed 95 weeks, study length 95 weeks): 1440 mg/kg/day
TD50 (rat, strain Fischer 344, females, inhaled, site: all sites + liver, lesion: mononuclear-cell leukemia + hemangiosarcoma + hepatocellular adenoma + hepatocellular carcinoma, dosed 103 weeks, study length 104 weeks): 56.3 mg/kg/day
TD50 (rat, strain Fischer 344, females, inhaled, site: all sites, lesion: hemangiosarcoma, dosed 103 weeks, study length 104 weeks): 886 mg/kg/day
TD50 (rat, strain Fischer 344, females, inhaled, site: all sites, lesion: mononuclear-cell leukemia, dosed 103 weeks, study length 104 weeks): 228 mg/kg/day
TD50 (rat, strain Fischer 344, females, inhaled, site: any site (literature study), lesion: several types, types named in the paper, dosed 103 weeks, study length 104 weeks): 287 mg/kg/day
TD50 (rat, strain Fischer 344, females, inhaled, site: kidney, lesion: tubule adenoma + tubule carcinoma, dosed 103 weeks, study length 104 weeks): 958 mg/kg/day and 1310 mg/kg/day
TD50 (rat, strain Fischer 344, females, inhaled, site: kidney, lesion: tubule adenoma, dosed 103 weeks, study length 104 weeks): 1510 mg/kg/day
TD50 (rat, strain Fischer 344, females, inhaled, site: kidney, lesion: tubule carcinoma, dosed 103 weeks, study length 104 weeks): 7380 mg/kg/day
TD50 (rat, strain Fischer 344, females, inhaled, site: liver, lesion: hemangiosarcoma, dosed 103 weeks, study length 104 weeks): 886 mg/kg/day
TD50 (rat, strain Fischer 344, females, inhaled, site: liver, lesion: hepatocellular adenoma + hepatoblastoma + hepatocellular carcinoma, dosed 103 weeks, study length 104 weeks): 156 mg/kg/day
TD50 (rat, strain Fischer 344, females, inhaled, site: liver, lesion: hepatocellular adenoma + hepatocellular carcinoma, dosed 103 weeks, study length 104 weeks): 156 mg/kg/day
TD50 (rat, strain Fischer 344, females, inhaled, site: liver, lesion: hepatocellular adenoma, dosed 103 weeks, study length 104 weeks): 528 mg/kg/day
TD50 (rat, strain Fischer 344, females, inhaled, site: liver, lesion: hepatocellular carcinoma, dosed 103 weeks, study length 104 weeks): 251 mg/kg/day
TD50 (rat, strain Fischer 344, males, inhaled, site: all sites, lesion: mononuclear-cell leukemia, dosed 103 weeks, study length 104 weeks): 59.7 mg/kg/day
TD50 (rat, strain Fischer 344, males, inhaled, site: any site (literature study), lesion: several types, types named in the paper, dosed 103 weeks, study length 104 weeks): 35.4 mg/kg/day
TD50 (rat, strain Fischer 344, males, inhaled, site: kidney, lesion: renal tubule adenoma, bilateral + tubule adenoma + tubule carcinoma, dosed 103 weeks, study length 104 weeks): 292 mg/kg/day and 367 mg/kg/day
TD50 (rat, strain Fischer 344, males, inhaled, site: kidney, lesion: renal tubule adenoma, bilateral + tubule adenoma, dosed 103 weeks, study length 104 weeks): 242 mg/kg/day and 334 mg/kg/day
TD50 (rat, strain Fischer 344, males, inhaled, site: liver, lesion: hepatocellular adenoma + hepatoblastoma + hepatocellular carcinoma, dosed 103 weeks, study length 104 weeks): 81.6 mg/kg/day
TD50 (rat, strain Fischer 344, males, inhaled, site: liver, lesion: hepatocellular adenoma + hepatocellular carcinoma, dosed 103 weeks, study length 104 weeks): 81.6 mg/kg/day
TD50 (rat, strain Fischer 344, males, inhaled, site: liver, lesion: hepatocellular adenoma, dosed 103 weeks, study length 104 weeks): 136 mg/kg/day
TD50 (rat, strain Fischer 344, males, inhaled, site: liver, lesion: hepatocellular carcinoma, dosed 103 weeks, study length 104 weeks): 163 mg/kg/day
TD50 (rat, strain Fischer 344, males, inhaled, site: testis, lesion: interstitial-cell adenoma, bilateral + interstitial-cell adenoma, dosed 103 weeks, study length 104 weeks): 27.5 mg/kg/day

CCNN
TD50 (mouse, strain Swiss albino, females, in drinking water, site: blood vessels, lesion: angioma, dosed 82 weeks, study length 82 weeks): 42.9 mg/kg/day
TD50 (mouse, strain Swiss albino, females, in drinking water, site: blood vessels, lesion: angiosarcoma, dosed 82 weeks, study length 82 weeks): 27.6 mg/kg/day
TD50 (mouse, strain Swiss albino, females, in drinking water, site: blood vessels, lesion: several types, types named in the paper, dosed 82 weeks, study length 82 weeks): 11.6 mg/kg/day
TD50 (mouse, strain Swiss albino, females, in drinking water, site: liver, lesion: angioma, dosed 82 weeks, study length 82 weeks): 42.9 mg/kg/day
TD50 (mouse, strain Swiss albino, females, in drinking water, site: liver, lesion: angiosarcoma, dosed 82 weeks, study length 82 weeks): 27.6 mg/kg/day
TD50 (mouse, strain Swiss albino, females, in drinking water, site: liver, lesion: several types, types named in the paper, dosed 82 weeks, study length 82 weeks): 13 mg/kg/day
TD50 (mouse, strain Swiss albino, females, in drinking water, site: lung, lesion: adenocarcinoma, dosed 82 weeks, study length 82 weeks): 14 mg/kg/day
TD50 (mouse, strain Swiss albino, females, in drinking water, site: lung, lesion: adenoma, dosed 82 weeks, study length 82 weeks): 5.62 mg/kg/day
TD50 (mouse, strain Swiss albino, females, in drinking water, site: lung, lesion: several types, types named in the paper, dosed 82 weeks, study length 82 weeks): 5.22 mg/kg/day
TD50 (mouse, strain Swiss albino, males, in drinking water, site: blood vessels, lesion: angiosarcoma, dosed 72 weeks, study length 72 weeks): 46.9 mg/kg/day
TD50 (mouse, strain Swiss albino, males, in drinking water, site: blood vessels, lesion: several types, types named in the paper, dosed 72 weeks, study length 72 weeks): 38.6 mg/kg/day
TD50 (mouse, strain Swiss albino, males, in drinking water, site: liver, lesion: angiosarcoma, dosed 72 weeks, study length 72 weeks): 46.9 mg/kg/day
TD50 (mouse, strain Swiss albino, males, in drinking water, site: liver, lesion: several types, types named in the paper, dosed 72 weeks, study length 72 weeks): 48.1 mg/kg/day
TD50 (mouse, strain Swiss albino, males, in drinking water, site: lung, lesion: adenoma, dosed 72 weeks, study length 72 weeks): 7.82 mg/kg/day
TD50 (mouse, strain Swiss albino, males, in drinking water, site: lung, lesion: several types, types named in the paper, dosed 72 weeks, study length 72 weeks): 8.81 mg/kg/day
